Data as given in US5639745A, “Fused-bicyclic lactams as interleukin-1β converting enzyme inhibitors” (Sanofi, priority 1995, dated 1997).

Legend:
ICE (IL-1β protease) = biological target: T1, ICE (IL-1β protease) (Homo sapiens, UniProt P29466); assay: enzyme assay, second order rates of inactivation of ICE; type: biochemical; conditions: in vitro; read-out: kobs/[I] (IL-1β protease inhibition, second order rate of inactivation)
T1 sequence (P29466 120-297 limits assumed): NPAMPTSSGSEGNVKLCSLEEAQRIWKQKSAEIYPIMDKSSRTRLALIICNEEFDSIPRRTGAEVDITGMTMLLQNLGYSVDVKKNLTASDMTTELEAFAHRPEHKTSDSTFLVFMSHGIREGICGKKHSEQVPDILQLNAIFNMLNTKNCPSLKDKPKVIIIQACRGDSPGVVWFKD
T1 sequence (P29466 317-404 limits assumed): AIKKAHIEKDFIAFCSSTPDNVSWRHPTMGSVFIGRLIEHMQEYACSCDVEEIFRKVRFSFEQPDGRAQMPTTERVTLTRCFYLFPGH
Text: Second order rates of inactivation were obtained by using the enzyme assay described in Dolle, R. E.; et al., J. Med Chem. (1994), 37, 563. […] In the case of these reversible inhibitors, the in vitro assay was modified to obtain the reversible Ki * as follows: […]

[1] = tested on: mature IL-1β release from human monocytes; assay: human monocyte pulse chase assay, inhibition of release of mature IL-1β (called In Vivo Assay); type: cell-based; conditions: human monocytes stimulated with fixed S. aureus
Description: In vivo inhibition (IC50) was determined as follows:
Human monocytes were isolated from heparinized leukopheresis units obtained through Biological Specialty Corporation (Lansdale, Pa.). Monocytes were purified by Ficoll-Hupaque (Pharmacia Fine Chemicals, Piscataway, N.J.) gradient centrifugation and more than 95% pure monocyte populations obtained by centrifugal elutriation. The assay was performed on duplicate samples of freshly isolated human monocytes, cultured in suspension at 37° C. and rotated gently in conical bottom polypropylene tubes (Sardstedt Inc., Princeton, N.J.). Human monocytes at a concentration of 5×10^6 cells/mL were resuspended in 1 mL of RPMI 1640 (a common tissue buffer from M. A. Bioproducts, Walkersville, Md.) containing 1% fetal calf serum (FCS) (HyClone, Logan, Utah) and 50 μg/mL gentamycin (Gibco, Grand Island, N.Y.). The cells were treated either with a compound of the invention (i.e. test compound) or with a non-inhibitor (control compound, typically 0.03% DMSO) for 15 minutes and then activated with 0.01% fixed Staphylococcus aureus (The Enzyme Center, Malden, Mass.) for 1 hour. The cells were then centrifuged and resuspended in 1 mL of cysteine, methionine-free RPMI media containing 1% dialyzed FCS (Hyclone). The cells were pretreated with a test compound or control compound for 15 minutes after which 0.01% fixed S. aureus plus 100 μCi Tran 35-S label (ICN, Irvine, Calif.) was added and the cells incubated at 37° C. for 1 hour. After incubation, cells were centrifuged, washed once in phosphate buffer saline and resuspended in 1 mL RPMI containing 1% fetal calf serum. The cells were again pretreated with a test or control compound for 15 minutes and then 0.01% S. aureus for 2 hours. At the end of the incubation, cells were centrifuged and supernates saved for immunoprecipitation. Cells were washed once in phosphate buffer saline and then lysed in RIPA, a continuous cell media buffer containing 2 mM phenylmethylsulfonyl fluoride, 10 mM iodoacetate, 1 μg/mL pepstatin A, 1 μg/mL leupeptin and 0.5 TIU aprotinin.
For the immunoprecipitations, an equal volume of 1% dry milk in RIPA buffer plus 50 μL of resuspended protein A sepharose CL-4B (Pharmacia, Piscataway, N.Y.) was added to supernates and 1 mL of 4% dry milk containing protein A sepharose CL-4B to cell lysates and samples rotated for 30 minutes at 4° C. Beads were then centrifuged down, samples transferred to fresh tubes and incubated overnight with 40 μg rabbit anti-human IL-1β polyclonal antibody (Genzyme, Cambridge, Mass.). The IL-1β proteins were then precipitated with 70 μL protein A sepharose, resuspended in 60 μL SDS sample buffer and run on 15% SGD-PAGE gels. Autoradiography was performed on dried gels and the amount of radioactivity (counts per minute, cpm) quantitated using a Betascope 603 analyzer.
In the monocyte pulse chase assay, each test parameter was run in duplicate. Data was collected from the Beta Scope using a personal computer, then transferred to the VAX system for calculation of mean cpm and standard deviation of the mean. When test compounds were evaluated, the percent inhibition of release of mature IL-1β was calculated as follows:
100×[1-(cells treated with stimuli+test compound-unstimulated cells)/(cells treated with stimuli+control compound-unstimulated cells)]
These % inhibition values were then used to calculate IC50 value for each compound. Since the human monocyte pulse chase assay uses primary cells from different donors, each test compound was run in 2-3 separate experiments, using monocytes from 2-3 different donors.

IL-1 receptor = conditions: cited from earlier work

Row | Molecule | kinact/KI (ICE (IL-1β protease)) [M⁻¹ s⁻¹] | IC50 [1] [µM] | joint swelling and disease activity (IL-1 receptor; after three weeks of daily treatment, subcutaneous) | antiinflammatory activity (IL-1 receptor; patients with active rheumatoid arthritis, subcutaneous 20, 70 and 200 mg) | effectiveness by dosing frequency (IL-1 receptor; subcutaneous 20, 70 and 200 mg)
1 | CN(C)Cc1ccc(C(=O)N[C@H]2CCC(=O)N3CCC[C@@H](C(=O)N[C@@H](CC(=O)O)C(=O)COc4cc(C(F)(F)F)nn4-c4ccc(Cl)cc4)N3C2=O)cc1 [Example 1] | > 10000 | < 10 |  |  | 
2 | O=C(O)C[C@H](NC(=O)[C@@H]1CCCN2C(=O)CC[C@H](NC(=O)OCc3ccccc3)C(=O)N12)C(=O)COc1cc(C(F)(F)F)nn1-c1ccccc1 [Example 4] | > 10000 | < 10 |  |  | 
3 | O=C(O)C[C@H](NC(=O)[C@@H]1CCCN2C(=O)CC[C@H](NC(=O)OCc3ccccc3)C(=O)N12)C(=O)COc1cc(C(F)(F)F)nn1-c1ccc(Cl)cc1 [Example 5] | > 10000 | < 10 |  |  | 
4 | O=C(O)C[C@H](NC(=O)[C@@H]1CCCN2C(=O)CC[C@H](NC(=O)OCc3ccccc3)C(=O)N12)C(=O)COc1cc(C(F)(F)F)nn1-c1ccccn1 [Example 6] | > 10000 | < 10 |  |  | 
5 | O=C(O)C[C@H](NC(=O)[C@@H]1CCCN2C(=O)CC[C@H](NC(=O)c3ccccc3)C(=O)N12)C(=O)COc1cc(C(F)(F)F)nn1-c1ccc(Cl)cc1 [Example 7] | > 10000 | < 10 |  |  | 
6 | O=C(O)CSc1ccc(C(=O)N[C@H]2CCC(=O)N3CCC[C@@H](C(=O)N[C@@H](CC(=O)O)C(=O)COc4cc(C(F)(F)F)nn4-c4ccc(Cl)cc4)N3C2=O)cc1 [Example 8] | > 10000 | < 10 |  |  | 
7 | O=C(O)CCSc1ccc(C(=O)N[C@H]2CCC(=O)N3CCC[C@@H](C(=O)N[C@@H](CC(=O)O)C(=O)COc4cc(C(F)(F)F)nn4-c4ccc(Cl)cc4)N3C2=O)cc1 [Example 9] | > 10000 | < 10 |  |  | 
8 | CC(C)COC(=O)N[C@H]1CCC(=O)N2CCC[C@@H](C(=O)N[C@@H](CC(=O)O)C(=O)COc3cc(C(F)(F)F)nn3-c3ccc(Cl)cc3)N2C1=O [Example 10] | > 10000 | < 10 |  |  | 
9 | O=C(O)CCCc1ccc(C(=O)N[C@H]2CCC(=O)N3CCC[C@@H](C(=O)N[C@@H](CC(=O)O)C(=O)COc4cc(C(F)(F)F)nn4-c4ccc(Cl)cc4)N3C2=O)cc1 [Example 20] | > 10000 | < 10 |  |  | 
10 | O=C(O)C[C@H](NC(=O)[C@@H]1CCCN2C(=O)CC[C@H](NC(=O)OCc3ccccc3)C(=O)N12)C(=O)COc1cc(C(F)(F)F)nn1-c1ccc(Cl)cn1 [Example 24] | > 10000 | < 10 |  |  | 
11 | CN(C)Cc1ccc(C(=O)N[C@H]2CCC(=O)N3CCC[C@@H](C(=O)N[C@@H](CC(=O)O)C(=O)COc4cc(C(F)(F)F)nn4-c4ccccn4)N3C2=O)cc1 [Example 25] | > 10000 | < 10 |  |  | 
12 | Antril: The IL-1 receptor antagonist, Antril (Synergen) |  |  | decrease in joint swelling and less disease activity | significant antiinflammatory activity | most effective when taken daily

Further lines, with some results ahead:

Row | kinact/KI (ICE (IL-1β protease)) [M⁻¹ s⁻¹] | IC50 [1] [µM] | Molecule | joint swelling and disease activity (IL-1 receptor; after three weeks of daily treatment, subcutaneous) | antiinflammatory activity (IL-1 receptor; patients with active rheumatoid arthritis, subcutaneous 20, 70 and 200 mg) | effectiveness by dosing frequency (IL-1 receptor; subcutaneous 20, 70 and 200 mg)
13 | > 10000 | < 10 | O=C(O)C[C@H](NC(=O)[C@@H]1CCCN2C(=O)CC[C@H](NC(=O)OCc3ccccc3)C(=O)N12)C(=O)COC(=O)c1c(Cl)cccc1Cl [Example 3] |  |  | 
14 | > 10000 | < 10 | CN(C)Cc1ccc(C(=O)N[C@H]2CCC(=O)N3CCC[C@@H](C(=O)N[C@@H](CC(=O)O)C(=O)COC(=O)c4c(Cl)cccc4Cl)N3C2=O)cc1 [Example 11] |  |  | 
15 | > 10000 | < 10 | O=C(O)CCc1ccc(C(=O)N[C@H]2CCC(=O)N3CCC[C@@H](C(=O)N[C@@H](CC(=O)O)C(=O)COc4cc(C(F)(F)F)nn4-c4ccc(Cl)cc4)N3C2=O)cc1 [Example 12] |  |  | 
16 | > 10000 | < 10 | O=C(O)C[C@H](NC(=O)[C@@H]1CCCN2C(=O)CC[C@H](NC(=O)c3ccc(CN4CCOCC4)cc3)C(=O)N12)C(=O)COC(=O)c1c(Cl)cccc1Cl [Example 13, [9-(4-(N-Morpholinomethyl)benzoylamino)octahydro-6,10-dioxo-6H-pyridazino[1 ,2a][1,2]diazepine-1-formoyl]-L-aspartic acid 2,6-dichlorobenzoyloxymethyl ketone] |  |  | 
17 | > 10000 | < 10 | CN1CCN(Cc2ccc(C(=O)N[C@H]3CCC(=O)N4CCC[C@@H](C(=O)N[C@@H](CC(=O)O)C(=O)COC(=O)c5c(Cl)cccc5Cl)N4C3=O)cc2)CC1 [Example 14, [9-(N-[4-(N-Methylpiperazino)methyl]benzoylamino)octahydro-6,10-dioxo-6H-pyridazino [1,2a][1,2]diazepine-1-formoyl]-L-aspartic acid 2,6-dichlorobenzoyloxymethyl ketone] |  |  | 
18 | > 10000 | < 10 | Cc1nccn1Cc1ccc(C(=O)N[C@H]2CCC(=O)N3CCC[C@@H](C(=O)N[C@@H](CC(=O)O)C(=O)COC(=O)c4c(Cl)cccc4Cl)N3C2=O)cc1 [Example 15, [9-(4-(N-(2-Methyl)imidazolylmethyl)benzoylamino)octahydro-6,10-dioxo-6H-pyridazino[1,2a][1,2]diazepine-1-formoyl]-L-aspartic acid 2,6-dichlorobenzoyloxymethyl ketone] |  |  | 
19 | > 10000 | < 10 | O=C(O)C[C@H](NC(=O)[C@@H]1CCCN2C(=O)CC[C@H](NC(=O)c3ccc4[nH]cnc4c3)C(=O)N12)C(=O)COC(=O)c1c(Cl)cccc1Cl [Example 16, [9-(5-Benzimidazoylamino)octahydro-6,10-dioxo-6H-pyridazino[1,2a][1,2]diazepine-1-formoyl]-L-aspartic acid 2,6-dichlorobenzoyloxymethyl ketone] |  |  | 
20 | > 10000 | < 10 | O=C(O)C[C@H](NC(=O)[C@@H]1CCCN2C(=O)CC[C@H](NC(=O)c3ccc4[nH]nnc4c3)C(=O)N12)C(=O)COC(=O)c1c(Cl)cccc1Cl [Example 17, [9-(5-Bentriazoylamino)octahydro-6,10-dioxo-6H-pyridazino[1,2a][1,2]diazepine-1-formoyl]-L-aspartic acid 2,6-dichlorobenzoyloxymethyl ketone] |  |  | 
21 | > 10000 | < 10 | CCOC(=O)n1nnc2cc(C(=O)N[C@H]3CCC(=O)N4CCC[C@@H](C(=O)N[C@@H](CC(=O)O)C(=O)COC(=O)c5c(Cl)cccc5Cl)N4C3=O)ccc21 [Example 18, [9-(N-Carboethoxy-5-bentriazoylamino)octahydro-6,10-dioxo-6H-pyridazino[1,2 a][1,2]diazepine-1-formoyl]-L-aspartic acid 2,6-dichlorobenzoyloxymethyl ketone] |  |  | 
22 | > 10000 | < 10 | CCOC(=O)n1cnc2cc(C(=O)N[C@H]3CCC(=O)N4CCC[C@@H](C(=O)N[C@@H](CC(=O)O)C(=O)COC(=O)c5c(Cl)cccc5Cl)N4C3=O)ccc21 [Example 19, [9-(N-Carboethoxy-5-benzimidazoylamino)octahydro-6,10-dioxo-6H-pyridazino[1 ,2a][1,2]diazepine-1-formoyl]-L-aspartic acid 2,6-dichlorobenzoyloxymethyl ketone] |  |  | 
23 | > 10000 | < 10 | O=C(O)C[C@H](NC(=O)[C@@H]1CCCN2CCC[C@H](NC(=O)OCc3ccccc3)C(=O)N12)C(=O)COC(=O)c1c(Cl)cccc1Cl [Example 23] |  |  | 
